# How the values were obtained:
# [1] = test system: sputum cells (dysplastic, pre-cancerous and cancerous cells); test: Glass slide assay for detection of pre-cancerous and cancerous cells with TCPP (fluorescence microscopy of sputum monolayer slides vs PAP-stain cytomorphology); type: cell-based, human; details: for Slides with morphology using TCPP/Slides with morphology using cytomorphology: N = 60 blinded sputum samples, 40 μg/mL TCPP
# [2] = Maximum solubility of TCPP in saline or blood; type: physicochemical
# [3] = of the six TCPP samples with class 11 designation
structure (smiles),measurement,setting,value
O=C(O)c1ccc(-c2c3nc(c(-c4ccc(C(=O)O)cc4)c4ccc([nH]4)c(-c4ccc(C(=O)O)cc4)c4nc(c(-c5ccc(C(=O)O)cc5)c5ccc2[nH]5)C=C4)C=C3)cc1 [TCPP],Number of Samples with Cells having Numerical Description by TCPP Fluorescence Microscopy/Number of Samples with Cell Description by Cytmorphology,"[1]; 9 = Degenerated cell clusters, medium to high fluorescence, Negative or metaplastic (n = 10)",0/10
same,Number of Samples with Cells having Numerical Description by TCPP Fluorescence Microscopy/Number of Samples with Cell Description by Cytmorphology,"[1]; 9 = Degenerated cell clusters, medium to high fluorescence, Severe dysplasia (n = 8)",0/8
same,Number of Samples with Cells having Numerical Description by TCPP Fluorescence Microscopy/Number of Samples with Cell Description by Cytmorphology,"[1]; 10 = Cells uniform size with small round nucleus, medium fluorescence (nucleus only), Adenicarcinoma, squamous cell and small cell carcinoma (n = 10)",2/10
same,Number of Samples with Cells having Numerical Description by TCPP Fluorescence Microscopy/Number of Samples with Cell Description by Cytmorphology,"[1]; 10 = Cells uniform size with small round nucleus, medium fluorescence (nucleus only), Carcinoma in situ (n = 11)",1/11
same,Number of Samples with Cells having Numerical Description by TCPP Fluorescence Microscopy/Number of Samples with Cell Description by Cytmorphology,"[1]; 10 = Cells uniform size with small round nucleus, medium fluorescence (nucleus only), Mild dysplasia (n = 12)",2/12
same,Number of Samples with Cells having Numerical Description by TCPP Fluorescence Microscopy/Number of Samples with Cell Description by Cytmorphology,"[1]; 10 = Cells uniform size with small round nucleus, medium fluorescence (nucleus only), Moderate dysplasia (n = 9)",2/9
same,Number of Samples with Cells having Numerical Description by TCPP Fluorescence Microscopy/Number of Samples with Cell Description by Cytmorphology,"[1]; 10 = Cells uniform size with small round nucleus, medium fluorescence (nucleus only), Negative or metaplastic (n = 10)",2/10
same,Number of Samples with Cells having Numerical Description by TCPP Fluorescence Microscopy/Number of Samples with Cell Description by Cytmorphology,"[1]; 10 = Cells uniform size with small round nucleus, medium fluorescence (nucleus only), Severe dysplasia (n = 8)",1/8
same,Number of Samples with Cells having Numerical Description by TCPP Fluorescence Microscopy/Number of Samples with Cell Description by Cytmorphology,"[1]; 11 = Cell membrane barely visible, medium fluorescence, Adenicarcinoma, squamous cell and small cell carcinoma (n = 10)",0/10
same,Number of Samples with Cells having Numerical Description by TCPP Fluorescence Microscopy/Number of Samples with Cell Description by Cytmorphology,"[1]; 11 = Cell membrane barely visible, medium fluorescence, Carcinoma in situ (n = 11)",2/11
same,Number of Samples with Cells having Numerical Description by TCPP Fluorescence Microscopy/Number of Samples with Cell Description by Cytmorphology,"[1]; 11 = Cell membrane barely visible, medium fluorescence, Mild dysplasia (n = 12)",6/12
same,Number of Samples with Cells having Numerical Description by TCPP Fluorescence Microscopy/Number of Samples with Cell Description by Cytmorphology,"[1]; 11 = Cell membrane barely visible, medium fluorescence, Moderate dysplasia (n = 9)",2/9
same,Number of Samples with Cells having Numerical Description by TCPP Fluorescence Microscopy/Number of Samples with Cell Description by Cytmorphology,"[1]; 11 = Cell membrane barely visible, medium fluorescence, Negative or metaplastic (n = 10)",6/10
same,Number of Samples with Cells having Numerical Description by TCPP Fluorescence Microscopy/Number of Samples with Cell Description by Cytmorphology,"[1]; 11 = Cell membrane barely visible, medium fluorescence, Severe dysplasia (n = 8)",2/8
same,Number of Samples with Cells having Numerical Description by TCPP Fluorescence Microscopy/Number of Samples with Cell Description by Cytmorphology,"[1]; 12 = Nuclear debris clumps, no fluorescence, Adenicarcinoma, squamous cell and small cell carcinoma (n = 10)",0/10
same,Number of Samples with Cells having Numerical Description by TCPP Fluorescence Microscopy/Number of Samples with Cell Description by Cytmorphology,"[1]; 12 = Nuclear debris clumps, no fluorescence, Carcinoma in situ (n = 11)",0/11
same,Number of Samples with Cells having Numerical Description by TCPP Fluorescence Microscopy/Number of Samples with Cell Description by Cytmorphology,"[1]; 12 = Nuclear debris clumps, no fluorescence, Mild dysplasia (n = 12)",1/12
same,Number of Samples with Cells having Numerical Description by TCPP Fluorescence Microscopy/Number of Samples with Cell Description by Cytmorphology,"[1]; 12 = Nuclear debris clumps, no fluorescence, Moderate dysplasia (n = 9)",0/9
same,Number of Samples with Cells having Numerical Description by TCPP Fluorescence Microscopy/Number of Samples with Cell Description by Cytmorphology,"[1]; 12 = Nuclear debris clumps, no fluorescence, Negative or metaplastic (n = 10)",0/10
same,Number of Samples with Cells having Numerical Description by TCPP Fluorescence Microscopy/Number of Samples with Cell Description by Cytmorphology,"[1]; 12 = Nuclear debris clumps, no fluorescence, Severe dysplasia (n = 8)",0/8
same,Number of Samples with Cells having Numerical Description by TCPP Fluorescence Microscopy/Number of Samples with Cell Description by Cytmorphology,"[1]; 13 = Nuclear debris background, no fluorescence, Adenicarcinoma, squamous cell and small cell carcinoma (n = 10)",3/10
same,Number of Samples with Cells having Numerical Description by TCPP Fluorescence Microscopy/Number of Samples with Cell Description by Cytmorphology,"[1]; 13 = Nuclear debris background, no fluorescence, Carcinoma in situ (n = 11)",5/11
same,Number of Samples with Cells having Numerical Description by TCPP Fluorescence Microscopy/Number of Samples with Cell Description by Cytmorphology,"[1]; 13 = Nuclear debris background, no fluorescence, Mild dysplasia (n = 12)",5/12
same,Number of Samples with Cells having Numerical Description by TCPP Fluorescence Microscopy/Number of Samples with Cell Description by Cytmorphology,"[1]; 13 = Nuclear debris background, no fluorescence, Moderate dysplasia (n = 9)",8/9
same,Number of Samples with Cells having Numerical Description by TCPP Fluorescence Microscopy/Number of Samples with Cell Description by Cytmorphology,"[1]; 13 = Nuclear debris background, no fluorescence, Negative or metaplastic (n = 10)",6/10
same,Number of Samples with Cells having Numerical Description by TCPP Fluorescence Microscopy/Number of Samples with Cell Description by Cytmorphology,"[1]; 13 = Nuclear debris background, no fluorescence, Severe dysplasia (n = 8)",2/8
same,Number of Samples with Cells having Numerical Description by TCPP Fluorescence Microscopy/Number of Samples with Cell Description by Cytmorphology,"[1]; 14 = Nuclear debris background, medium fluorescence, Adenicarcinoma, squamous cell and small cell carcinoma (n = 10)",0/10
same,Number of Samples with Cells having Numerical Description by TCPP Fluorescence Microscopy/Number of Samples with Cell Description by Cytmorphology,"[1]; 14 = Nuclear debris background, medium fluorescence, Carcinoma in situ (n = 11)",1/11
same,Number of Samples with Cells having Numerical Description by TCPP Fluorescence Microscopy/Number of Samples with Cell Description by Cytmorphology,"[1]; 14 = Nuclear debris background, medium fluorescence, Mild dysplasia (n = 12)",2/12
same,Number of Samples with Cells having Numerical Description by TCPP Fluorescence Microscopy/Number of Samples with Cell Description by Cytmorphology,"[1]; 14 = Nuclear debris background, medium fluorescence, Moderate dysplasia (n = 9)",2/9
same,Number of Samples with Cells having Numerical Description by TCPP Fluorescence Microscopy/Number of Samples with Cell Description by Cytmorphology,"[1]; 14 = Nuclear debris background, medium fluorescence, Negative or metaplastic (n = 10)",1/10
same,Number of Samples with Cells having Numerical Description by TCPP Fluorescence Microscopy/Number of Samples with Cell Description by Cytmorphology,"[1]; 14 = Nuclear debris background, medium fluorescence, Severe dysplasia (n = 8)",1/8
same,Avg. # numerical descriptions per cell examined,"[1]; Adenicarcinoma, squamous cell and small cell carcinoma (n = 10)",4.90
same,Slides with morphology using TCPP/Slides with morphology using cytomorphology,"[1]; Adenocarcinoma, squamous cell and small cell carcinoma",10/10
same,Avg. # numerical descriptions per cell examined,[1]; Carcinoma in situ (n = 11),4.82
same,Slides with morphology using TCPP/Slides with morphology using cytomorphology,[1]; Carcinoma in situ,11/11
same,Avg. # numerical descriptions per cell examined,[1]; Mild dysplasia (n = 12),3.08
same,Slides with morphology using TCPP/Slides with morphology using cytomorphology,[1]; Mild dysplasia,12/12
same,Avg. # numerical descriptions per cell examined,[1]; Moderate dysplasia (n = 9),4.11
same,Slides with morphology using TCPP/Slides with morphology using cytomorphology,[1]; Moderate dysplasia,9/9
same,Avg. # numerical descriptions per cell examined,[1]; Negative or metaplastic (n = 10),1.80
same,Slides with morphology using TCPP/Slides with morphology using cytomorphology,"[1]; Negative or metaplastic, 10 minutes, 36° C.",4/10
same,Avg. # numerical descriptions per cell examined,[1]; Severe dysplasia (n = 8),3.13
same,Slides with morphology using TCPP/Slides with morphology using cytomorphology,[1]; Severe dysplasia,8/8
same,Samples demonstrating the same morphology using the TCPP method,[1]; among the ten samples characterized as normal or metaplastic by PAP-staining,four
same,Sputum samples mildly dysplastic to cancerous by PAP-staining also identified as abnormal by TCPP detection,"[1]; blinded study, 60 samples",Fifty out of fifty
same,Average number of numerical classifications assigned,"[1]; cells displaying adenicarcinoma, squamous cell and small cell carcinoma",5
same,Average number of numerical classifications assigned,[1]; cells having a negative or metaplastic morphology,2
same,Samples also indicating fluorescence from nuclear debris (class 13 or 14),[1]; [3],three
same,Samples also showing class 10 designation (fluorescence from the nucleus only),[1]; [3],two
same,Samples designated with a class 11 cell description based on TCPP fluorescence,[1]; of the ten cell samples negative or metaplastic by PAP-staining,6
same,TCPP uptake,[1]; samples diagnosed as normal,minimal or no TCPP uptake
same,TCPP-exposed cells fluorescing at which the sample reliably correlated with at least the mildly dysplastic diagnosis,[1]; sputum monolayer slides,2-3%
same,Maximum solubility in saline or blood,[2],about 100 μg/mL

# — US9417241B2, “5, 10, 15, 20-tetrakis (carboxyphenyl) porphine (TCPP) and kit for use with detecting cancer” (bioAffinity Technologies, Inc., priority 2000, dated 2016)
